Reference: patent US20080299538A1, “Pathogen Inactivation of Whole Blood” (CARIDIANBCT BIOTECHNOLOGIES, LLC, priority 2003, published 2008)
“And” between values parts separate entries of the source, which are not always exact repeats. Identical values can stand only once. Like-named read-outs stand apart in the source and are kept apart here.

Experiments:
[1] = system: T cells; assay: CD69 expression after PMA activation (flow cytometry); assay type: cell-based; settings: all energies tested (22, 33 and 44 J/mLRBC)
[2] = system: Hepatitis A (HAV); assay: Virus inactivation in whole blood; assay type: cell-based; settings: as a function of illumination energy
[3] = system: canine parvovirus (CPV); assay: Virus inactivation in whole blood; assay type: cell-based; settings: as a function of illumination energy
[4] = system: vesicular stomatitis virus (VSV); assay type: cell-based; settings: as a function of illumination energy
[5] = system: infectious bovine rhinotracheitis virus (IBR); assay: Virus inactivation in whole blood; assay type: cell-based; settings: as a function of illumination energy
[6] = system: S. epidermidis; assay: Low bacteria titer study in whole blood; assay type: cell-based; set-up: key to Bacteria detected (+) or not detected (−) after treatment: +: some of the replicates of the cultures in the panel grew in under 5 days; −: none of the replicates of the cultures in the panel grew in under 5 days; settings: for Bacteria detected (+) or not detected (−) after treatment: 110 J/mLRBC (n = 3)
Text: (§1) To test whether pathogen inactivation of whole blood was effective in inactivating clinically relevant levels of bacteria which may be present in the whole blood, low titer bacteria studies were done. After pathogen inactivation of whole blood, the whole blood was separated into a red blood cell (RBC) component and platelet rich plasma (PRP) component. A + symbol means that some of the replicates of the cultures in the panel grew in under 5 days. A − symbol means that none of the replicates of the cultures in the panel grew in under 5 days.

[7] = system: A. baumannii; assay: Low bacteria titer study in whole blood; assay type: cell-based; set-up: key: +: some of the replicates of the cultures in the panel grew in under 5 days; −: none of the replicates of the cultures in the panel grew in under 5 days; settings: 110 J/mLRBC (n = 3)
Text: as §1

[8] = system: S. liquefaciens; assay: Low bacteria titer study in whole blood; assay type: cell-based; set-up: key: +: some of the replicates of the cultures in the panel grew in under 5 days; −: none of the replicates of the cultures in the panel grew in under 5 days
Text: as §1

[9] = system: S. pyogenes; assay: Low bacteria titer study in whole blood; assay type: cell-based; set-up: key: +: some of the replicates of the cultures in the panel grew in under 5 days; −: none of the replicates of the cultures in the panel grew in under 5 days
Text: as §1

[10] = system: Y. enterocolitica; assay: Low bacteria titer study in whole blood; assay type: cell-based; set-up: key: +: some of the replicates of the cultures in the panel grew in under 5 days; −: none of the replicates of the cultures in the panel grew in under 5 days
Text: as §1

[11] = system: red blood cells; assay: ATP level in stored red blood cells; assay type: cell-based; settings: increased energy levels
Method: ATP level or concentration was measured in red blood cells separated from pathogen inactivated whole blood. ATP concentration is a measure of the amount of ATP present in the cells at a given time.

[12] = system: red blood cells; assay: Mean osmotic fragility of stored red blood cells; assay type: cell-based; settings: stored for 42 days; vs untreated cells
Method: Osmotic fragility during storage of red blood cells separated from pathogen inactivated whole blood was measured. The normal red blood cell is a relatively impermeable biconcave disc which maintains osmotic equilibrium with the surrounding medium. As the surrounding medium becomes hypotonic, fluid will be taken into the cell to maintain stability. Eventually under very hypotonic conditions the cell will fill to capacity and rupture. Red blood cells with damaged membranes have a decreased capacity to expand, and will rupture in mildly hypotonic conditions that fail to lyse normal red cells. […] Mean osmotic fragility (MOF) is a measure of red blood cell membrane fragility. The higher the MOF, the more fragile the red blood cells are. MOF is the concentration of NaCl where 50% of the red blood cells hemolyze.

[13] = system: platelets; assay: Platelet quality during storage; assay type: cell-based
Method: Platelet quality is assessed with measurements of pH, swirl, lactate production rate and glucose consumption rate on Days 1 and 5.
Platelets were separated from pathogen inactivated whole blood and markers of platelet quality were measured.

[14] = system: white blood cells (WBCs); assay: WBC functionality, all tested stimuli (summary statements); assay type: cell-based
[15] = system: white blood cells (WBCs); settings: for % inhibition of proliferation: Allorecognition: treated responders
[16] = system: white blood cells (WBCs); settings: Allostimulation: treated stimulators
[17] = system: white blood cells (WBCs); assay: WBC proliferation in response to PHA (thymidine incorporation)
[18] = system: white blood cells (WBCs); assay: Cytokine production in response to LPS (Cytometric Bead Assay); settings: for % inhibition of IFN-γ production / % inhibition of IL-2 production / % inhibition of IL-4 production / % inhibition of IL-5 production / % inhibition of IL-10 production / % inhibition of TNFα production: LPS, TH1/TH2 cytokines
[19] = over 5 days of storage at higher energy levels

In the case of `Cc1cc2nc3c(=O)[nH]c(=O)nc-3n(C[C@H](O)[C@H](O)[C@H](O)CO)c2cc1C` [riboflavin, 7,8-dimethyl-10-ribityl isoalloxazine], the “expression of CD69 on T cells after PMA activation” value [1] is reported as “inhibited expression of CD69”, the “log reduction of virus” value [2] is reported as “increases linearly with respect to energy” and the “log reduction of virus” value [3] is reported as “increases linearly with respect to energy”. For the same compound, the “log reduction of virus” value [4] was “increases linearly with respect to energy”, the “log reduction of virus” value [5] was “increases linearly with respect to energy” and the “Bacteria detected (+) or not detected (−) after treatment” value (“Bacteria detected (+) or not detected” below) ([6]; PRP) was “−”. For the same compound, the “Bacteria detected (+) or not detected” value ([6]; RBC) was “+”, the “bacterial growth in red blood cells” value ([6]; 110 J/mLRBC, RBC) was “grew” and the “Bacteria detected (+) or not detected” value ([7]; PRP) was “−”. The “Bacteria detected (+) or not detected” value ([7]; RBC) was “−”, the “Bacteria detected (+) or not detected” value ([8]; 80 J/mLRBC (n = 3), PRP) was “−” and the “Bacteria detected (+) or not detected” value ([8]; 80 J/mLRBC (n = 3), RBC) was “−”. The “Bacteria detected (+) or not detected” value ([8]; 110 J/mLRBC (n = 3), PRP) was “−”, the “Bacteria detected (+) or not detected” value ([8]; 110 J/mLRBC (n = 3), RBC) was “−” and the “Bacteria detected (+) or not detected” value ([9]; 80 J/mLRBC (n = 3), PRP) was “−”. The “Bacteria detected (+) or not detected” value ([9]; 110 J/mLRBC (n = 3), PRP) was “−”, the “Bacteria detected (+) or not detected” value ([9]; 110 J/mLRBC (n = 3), RBC) was “−” and the “Bacteria detected (+) or not detected” value ([10]; 80 J/mLRBC (n = 3), PRP) was “−”. For the same compound, the “Bacteria detected (+) or not detected” value ([10]; 80 J/mLRBC (n = 3), RBC) was “−”, the “Bacteria detected (+) or not detected” value ([10]; 110 J/mLRBC (n = 3), PRP) was “−” and the “Bacteria detected (+) or not detected” value ([10]; 110 J/mLRBC (n = 3), RBC) was “−”. The “total concentration of ATP in red blood cells” value [11] was “decrease the total concentration of ATP”, the “osmotic fragility (MOF) of red blood cells” value [12] was “slightly more fragile than untreated cells” and the “platelet carbon dioxide production” value [13, 19] was “appears to decrease”. The platelet glucose consumption [13, 19] was “appears to decrease”, the platelet lactate production [13, 19] was “appears to increase” and the platelet oxygen consumption [13, 19] was “appears to increase”. For the same compound, the “platelet pH” value ([13]; over 5 days of storage, treated and untreated) was “remains the same”, the “inhibition of WBC proliferation / decrease of proliferative response” value ([14]; all tested stimuli and antigen presentation, all energies tested, stimulated control vs stimulated treated cells) was 93-99% and > 90% and the “functional inactivation of white blood cells in whole blood” value ([14]; riboflavin and light) was “functionally inactivates the white blood cells”. For the same compound, the “proliferation in response to PHA, anti-CD3/CD28 and allogeneic stimulator cells” value ([14]; riboflavin+UV light at all energies tested) was “inhibited proliferation”, the “% inhibition of proliferation” value ([15]; 22 J/mlRBC) was 95 ± 3% and the “% inhibition of proliferation” value ([15]; 33 J/mlRBC) was 95 ± 2%. For the same compound, the “% inhibition of proliferation” value ([15]; 44 J/mlRBC) was 96 ± 2%, the “proliferation of treated WBCs in response to allogeneic stimulator cells” value ([15]; treated WBCs as responder cells in MLC) was “not able to proliferate” and the “% inhibition of proliferation” value ([16]; 22 J/mlRBC) was 93 ± 3%. The “% inhibition of proliferation” value ([16]; 33 J/mlRBC) was 96 ± 2%, the “% inhibition of proliferation” value ([16]; 44 J/mlRBC) was 95 ± 2% and the “% inhibition of proliferation” value ([17]; 22 J/mlRBC) was 98 ± 1%. The “% inhibition of proliferation” value ([17]; 33 J/mlRBC) was 99 ± 1%, the “induced proliferation of treated WBCs” value ([17]; 33 J/mlRBC and above, 3 days of incubation) was “no detectable induced proliferation” and the “% inhibition of proliferation” value ([17]; 44 J/mlRBC) was 99 ± 0%. The “inflammatory cytokine production in response to LPS” value [18] was “reduced with treatment, but not to medium control levels”, the “TH1/TH2 cytokine levels induced by LPS” value ([18]; 44 J/mlRBC) was “reduced to medium control levels” and the “% inhibition of IFN-γ production” value ([18]; 22 J/mlRBC) was 63 ± 71%. For the same compound, the “% inhibition of IL-2 production” value ([18]; 22 J/mlRBC) was 63 ± 54%, the “% inhibition of IL-4 production” value ([18]; 22 J/mlRBC) was 59 ± 65% and the “% inhibition of IL-5 production” value ([18]; 22 J/mlRBC) was 89 ± 2%. The “% inhibition of IL-10 production” value ([18]; 22 J/mlRBC) was 66 ± 21%, the “% inhibition of TNFα production” value ([18]; 22 J/mlRBC) was 45 ± 53% and the “% inhibition of IFN-γ production” value ([18]; 33 J/mlRBC) was 93 ± 8%. The “% inhibition of IL-4 production” value ([18]; 33 J/mlRBC) was 90 ± 4%, the “% inhibition of IL-10 production” value ([18]; 33 J/mlRBC) was 94 ± 4% and the “% inhibition of TNFα production” value ([18]; 33 J/mlRBC) was 94 ± 5%. For the same compound, the “% inhibition of IFN-γ production” value ([18]; 44 J/mlRBC) was 93 ± 7%, the “% inhibition of IL-2 production” value ([18]; 44 J/mlRBC) was 88 ± 4% and the “% inhibition of IL-4 production” value ([18]; 44 J/mlRBC) was 90 ± 4%. The “% inhibition of IL-5 production” value ([18]; 44 J/mlRBC) was 91 ± 6%, the “% inhibition of IL-10 production” value ([18]; 44 J/mlRBC) was 99 ± 1% and the “% inhibition of TNFα production” value ([18]; 44 J/mlRBC) was 94 ± 8%.
